In patent US20260262643A1, “HERBICIDAL BENZOXAZINES” (FMC CORPORATION, priority 2022, published 2026):

Assays:
[1] = system: oat, wild; test: Test C preemergence; format: in vivo, Avena fatua
How it was run: (§1)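 Visual injury ratings on a 0–100 scale (100 = complete control) were made against untreated controls 10 days after treatment in the greenhouse. Compounds, formulated with surfactant in non-phytotoxic solvent, were sprayed on soil preemergence or onto one- to two-leaf plants 2–10 cm tall postemergence.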

[2] = system: pigweed, palmer; test: Test C postemergence; format: in vivo, Amaranthus palmeri; conditions: 10 days, 0 to 100 scale (0 no effect, 100 complete control)
How it was run: as §1

[3] = system: blackgrass; test: Test C postemergence; format: in vivo, Alopecurus myosuroides; conditions: 10 days, 0 to 100 scale (0 no effect, 100 complete control)
How it was run: as §1

[4] = system: green foxtail; test: Test C preemergence; format: in vivo, Setaria viridis
How it was run: as §1

[5] = system: barnyardgrass; test: Test C postemergence; format: in vivo, Echinochloa crusgalli; conditions: 10 days, 0 to 100 scale (0 no effect, 100 complete control)
How it was run: as §1

[6] = system: galium; test: Test C postemergence; format: in vivo, Galium aparine; conditions: 10 days, 0 to 100 scale (0 no effect, 100 complete control)
How it was run: as §1

[7] = system: ragweed; test: Test C postemergence; format: in vivo, Ambrosia artemisiifolia; conditions: 10 days, 0 to 100 scale (0 no effect, 100 complete control)
How it was run: as §1

[8] = system: soybean; test: Test C postemergence; format: in vivo, Glycine max; conditions: 10 days, 0 to 100 scale (0 no effect, 100 complete control)
How it was run: as §1

[9] = system: ryegrass, Italian; test: Test C postemergence; format: in vivo, Lolium multiflorum; conditions: 10 days, 0 to 100 scale (0 no effect, 100 complete control)
How it was run: as §1

[10] = system: oat, wild; test: Test C postemergence; format: in vivo, Avena fatua; conditions: 10 days, 0 to 100 scale (0 no effect, 100 complete control)
How it was run: as §1

[11] = system: corn; test: Test C preemergence; format: in vivo, Zea mays
How it was run: as §1

[12] = system: ragweed; test: Test C preemergence; format: in vivo, Ambrosia artemisiifolia
How it was run: as §1

[13] = system: barnyardgrass; test: Test C preemergence; format: in vivo, Echinochloa crusgalli; conditions: Preemergence, 125 g ai/ha; 0 to 100 scale, 0 no effect, 100 complete control
How it was run: as §1

[14] = system: corn; test: Test C postemergence; format: in vivo, Zea mays; conditions: 10 days, 0 to 100 scale (0 no effect, 100 complete control)
How it was run: as §1

[15] = system: green foxtail; test: Test C postemergence; format: in vivo, Setaria viridis; conditions: 10 days, 0 to 100 scale (0 no effect, 100 complete control)
How it was run: as §1

[16] = system: ducksalad; test: Test D flooded paddy test; format: in vivo, Heteranthera limosa; conditions: 250 g ai/ha, applied to paddy water, visual rating after 13 to 14 days, scale 0 to 100 (0 no effect, 100 complete control)
How it was run: (§2)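 At the 2-leaf stage, floodwater 3 cm deep received the test compound; that depth persisted throughout. Plants scored visually 13 to 14 days on, 0 (no effect) to 100 (complete control), dash indicating no result.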

[17] = system: rice; test: Test D flooded paddy test; format: in vivo, Oryza sativa; conditions: 250 g ai/ha, applied to paddy water, visual rating after 13 to 14 days, scale 0 to 100 (0 no effect, 100 complete control)
How it was run: as §2

[18] = system: wheat; test: Test C postemergence; format: in vivo, Triticum aestivum; conditions: 10 days, 0 to 100 scale (0 no effect, 100 complete control)
How it was run: as §1

[19] = system: pigweed, palmer; test: Test C preemergence; format: in vivo, Amaranthus palmeri
How it was run: as §1

[20] = system: kochia; test: Test C postemergence; format: in vivo, Bassia scoparia; conditions: 10 days, 0 to 100 scale (0 no effect, 100 complete control)
How it was run: as §1

[21] = system: kochia; test: Test C preemergence; format: in vivo, Bassia scoparia
How it was run: as §1

[22] = system: barnyardgrass; test: Test D flooded paddy test; format: in vivo, Echinochloa crus-galli; conditions: 250 g ai/ha, applied to paddy water, visual rating after 13 to 14 days, scale 0 to 100 (0 no effect, 100 complete control)
How it was run: as §2

[23] = system: sedge, umbrella; test: Test D flooded paddy test; format: in vivo, Cyperus difformis; conditions: 250 g ai/ha, applied to paddy water, visual rating after 13 to 14 days, scale 0 to 100 (0 no effect, 100 complete control)
How it was run: as §2

[24] = system: horseweed; test: Test C postemergence; format: in vivo, Erigeron canadensis; conditions: 10 days, 0 to 100 scale (0 no effect, 100 complete control)
How it was run: as §1

[25] = system: wheat; test: Test C preemergence; format: in vivo, Triticum aestivum
How it was run: as §1

[26] = system: soybean; test: Test C preemergence; format: in vivo, Glycine max
How it was run: as §1

[27] = system: ryegrass, Italian; test: Test C preemergence; format: in vivo, Lolium multiflorum
How it was run: as §1

[28] = system: blackgrass; test: Test C preemergence; format: in vivo, Alopecurus myosuroides
How it was run: as §1

[29] = 500 g ai/ha, preemergence, 0 to 100 scale (0 no effect, 100 complete control)
[30] = Preemergence, 125 g ai/ha, 0 to 100 scale, 0 no effect, 100 complete control

CSc1ccc(-n2cnc(C(C)C)n2)cc1C(=O)N1C[C@H](C)Oc2c(Cl)cccc21 [Compound 391]
Oat, Wild plant response rating [1, 29]: 80 | Plant response rating, Oat, Wild [1, 30]: 30 | Plant response rating, Pigweed, Palmer ([2]; 500 g ai/ha, postemergence): 100 | Plant response rating, Pigweed, Palmer ([2]; Postemergence, 125 g ai/ha): 90 | Plant response rating, Blackgrass ([3]; 500 g ai/ha, postemergence): 80 | Plant response rating, Blackgrass ([3]; Postemergence, 125 g ai/ha): 60 | Foxtail, Green plant response rating [4, 29]: 100 | Plant response rating, Foxtail, Green [4, 30]: 100 | Plant response rating, Barnyardgrass ([5]; 500 g ai/ha, postemergence): 60 | Plant response rating, Barnyardgrass ([5]; Postemergence, 125 g ai/ha): 40 | Plant response rating, Galium ([6]; 500 g ai/ha, postemergence): 100 | Plant response rating, Galium ([6]; Postemergence, 125 g ai/ha): 100 | Plant response rating, Ragweed ([7]; 500 g ai/ha, postemergence): 90 | Plant response rating, Ragweed ([7]; Postemergence, 125 g ai/ha): 60 | Plant response rating, Soybean ([8]; 500 g ai/ha, postemergence): 100 | Plant response rating, Soybean ([8]; Postemergence, 125 g ai/ha): 100 | Plant response rating, Ryegrass, Italian ([9]; 500 g ai/ha, postemergence): 100 | Plant response rating, Ryegrass, Italian ([9]; Postemergence, 125 g ai/ha): 50 | Plant response rating, Oat, Wild ([10]; 500 g ai/ha, postemergence): 80 | Plant response rating, Oat, Wild ([10]; Postemergence, 125 g ai/ha): 30 | Corn plant response rating [11, 29]: 20 | Plant response rating, Corn [11, 30]: 20 | Ragweed plant response rating [12, 29]: 60 | Plant response rating, Ragweed [12, 30]: 10 | Plant response rating, Barnyardgrass [13]: 60 | Plant response rating, Corn ([14]; 500 g ai/ha, postemergence): 60 | Plant response rating, Corn ([14]; Postemergence, 125 g ai/ha): 60 | Plant response rating, Foxtail, Green ([15]; 500 g ai/ha, postemergence): 80 | Plant response rating, Foxtail, Green ([15]; Postemergence, 125 g ai/ha): 70 | Plant response rating, Ducksalad (Flood) [16]: 35 | Plant response rating, Rice (Flood) [17]: 0 | Plant response rating, Wheat ([18]; 500 g ai/ha, postemergence): 40 | Plant response rating, Wheat ([18]; Postemergence, 125 g ai/ha): 30 | Pigweed, Palmer plant response rating [19, 29]: 100 | Plant response rating, Pigweed, Palmer [19, 30]: 100 | Plant response rating, Kochia ([20]; 500 g ai/ha, postemergence): 100 | Plant response rating, Kochia ([20]; Postemergence, 125 g ai/ha): 100 | Kochia plant response rating [21, 29]: 100 | Plant response rating, Kochia [21, 30]: 90 | Plant response rating, Barnyardgrass (Flood) [22]: 10 | Plant response rating, Sedge, Umbrella (Flood) [23]: 45 | Plant response rating, Horseweed ([24]; 500 g ai/ha, postemergence): 60 | Plant response rating, Horseweed ([24]; Postemergence, 125 g ai/ha): 0 | Wheat plant response rating [25, 29]: 30 | Plant response rating, Wheat [25, 30]: 0 | Soybean plant response rating [26, 29]: 90 | Plant response rating, Soybean [26, 30]: 50 | Ryegrass, Italian plant response rating [27, 29]: 90 | Plant response rating, Ryegrass, Italian [27, 30]: 20 | Blackgrass plant response rating [28, 29]: 80 | Plant response rating, Blackgrass [28, 30]: 50
